Source: patent US10947296B2, “Fusion protein Slit2D2(C386S)-HSA and use thereof in treatment of fibrotic diseases” (SUZHOU THINKING POWER BIOTECHNOLOGY CO., LTD., priority 2016, dated 2021)

What was measured:
[1] = tested on: pulmonary fibrosis model; test: Efficacy on bleomycin-induced pulmonary fibrosis model; assay type: in vivo; design: body weight of the animals (Mean ± SEM) / Weight of the left lung (Mean ± SEM) / Volume of the left lung (Mean ± SEM): unit not given here; settings: for body weight of the animals (Mean ± SEM): PFD 50mpk BID PO
Protocol: Animals were anesthetized by inhaling isoflurane. After confirmation of anesthesia, the animals were sterilized, then the neck skin was cut, the muscles were bluntly separated to expose the trachea, and bleomycin (dosage: 3 mg/kg, volume: 1.0 mL/kg) was directly injected between the tracheal rings. After the operation, the animals were placed in a 37° C. electric blanket to keep warm until the animals were completely awakened. After confirming that they were able to eat and drink freely, the animals were returned to the cage for normal feeding.
In this experiment, there were four groups, i.e., model group (experimental group-1, […]), PFD group (experimental group-2, n=6), Slit2D2(C386S)-HSA-1 mg/kg (experimental group-3, n=6), and Slit2D2(C386S)-HSA-5 mg/kg (experimental group-4, n=6).
In this experiment, the positive control drug (PFD) was given to rats by gavage twice a day, which was started on the day of modeling, and administered continuously for 14 days. The test compound (Slit2D2(C386S)-HSA) was given intravenously once every other day, which was started on the day of modeling, and a total of seven doses were administered (as shown in table 6).
Physiological observation of the experimental animals: changes in body weight of the animals were measured (body weight was measured once a day before administration); and the death rate of animals during the test period was monitored.
Animals were euthanized 24 hours after the last administration on the 14th day of modeling. After confirming the death of the animals, the left lung was fixed by intrapulmonary infusion of formalin, and the volume and weight of the left lung after perfusion were measured for relevant examination of the pulmonary pathology.
General pathological examination: After the perfusion with an equal amount of formalin in the left lung, the wet weight of left lung after perfusion was weighed/recorded with a micro-balance; and the volume of left lung after perfusion was measured and recorded using a micro-measuring cup.
Pathological examination of lung tissue: The whole lung was dehydrated. Lung paraffin sections were made with paraffin blocks. […] HE staining and Masson Trichrome staining were performed according to pathological staining SOP, and whole section scanning was performed using a Digital Pathscope slice scanner. Pathological analysis and scoring of changes in damage and inflammation of terminal bronchioles and accompanying small pulmonary artery at the periphery of the lesions (as shown in Tables 7 and 8 and FIG. 7) were performed using the HE-stained sections. Lesion area calculation, lesion pathology analysis and scoring were performed with the Masson Trichrome-stained sections (as shown in Table 9 and FIG. 8).
The mean±sd or mean±sem was calculated using the graphpad prism software, and the significant difference test was performed using t-test, one-way ANOVA and two-way ANOVA test. A significant difference between the two groups was considered at p<0.05.

[2] = target: T1, Robo1 protein (Homo sapiens, UniProt Q9Y6N7); test: Affinity of the fusion protein to receptor Robo1 determined by SPR; assay type: binding; settings: Robo1 bound to CM5 chip
T1 construct: purchased ORIGEN TP327713
Protocol: The affinity constant between the protein and Robo1 protein was detected by SPR (Surface Plasmon resonance BIAcore 200) method. The Robo1 protein (ORIGEN, Art. No.: TP327713) was bound to a CM5 chip, and the interaction between the fusion protein Slit2D2(C386S)-HSA (prepared in Example 1), Slit2D2-HSA (as disclosed in Patent Application PCT/CN2015/092079), and the receptor protein Robo1 were analyzed. Kinetic measurements were performed according to the method referred by Canziani et al. (2004, Anal. Biochem. 325: 301-307). Furthermore, the affinity of the Slit2N protein (Slit2N is a protein having a molecular weight of about 120 kDa at the N-terminus of the Slit2 protein) to Robo1 protein was also determined by the same method.

T1 sequence (Q9Y6N7 26-1651): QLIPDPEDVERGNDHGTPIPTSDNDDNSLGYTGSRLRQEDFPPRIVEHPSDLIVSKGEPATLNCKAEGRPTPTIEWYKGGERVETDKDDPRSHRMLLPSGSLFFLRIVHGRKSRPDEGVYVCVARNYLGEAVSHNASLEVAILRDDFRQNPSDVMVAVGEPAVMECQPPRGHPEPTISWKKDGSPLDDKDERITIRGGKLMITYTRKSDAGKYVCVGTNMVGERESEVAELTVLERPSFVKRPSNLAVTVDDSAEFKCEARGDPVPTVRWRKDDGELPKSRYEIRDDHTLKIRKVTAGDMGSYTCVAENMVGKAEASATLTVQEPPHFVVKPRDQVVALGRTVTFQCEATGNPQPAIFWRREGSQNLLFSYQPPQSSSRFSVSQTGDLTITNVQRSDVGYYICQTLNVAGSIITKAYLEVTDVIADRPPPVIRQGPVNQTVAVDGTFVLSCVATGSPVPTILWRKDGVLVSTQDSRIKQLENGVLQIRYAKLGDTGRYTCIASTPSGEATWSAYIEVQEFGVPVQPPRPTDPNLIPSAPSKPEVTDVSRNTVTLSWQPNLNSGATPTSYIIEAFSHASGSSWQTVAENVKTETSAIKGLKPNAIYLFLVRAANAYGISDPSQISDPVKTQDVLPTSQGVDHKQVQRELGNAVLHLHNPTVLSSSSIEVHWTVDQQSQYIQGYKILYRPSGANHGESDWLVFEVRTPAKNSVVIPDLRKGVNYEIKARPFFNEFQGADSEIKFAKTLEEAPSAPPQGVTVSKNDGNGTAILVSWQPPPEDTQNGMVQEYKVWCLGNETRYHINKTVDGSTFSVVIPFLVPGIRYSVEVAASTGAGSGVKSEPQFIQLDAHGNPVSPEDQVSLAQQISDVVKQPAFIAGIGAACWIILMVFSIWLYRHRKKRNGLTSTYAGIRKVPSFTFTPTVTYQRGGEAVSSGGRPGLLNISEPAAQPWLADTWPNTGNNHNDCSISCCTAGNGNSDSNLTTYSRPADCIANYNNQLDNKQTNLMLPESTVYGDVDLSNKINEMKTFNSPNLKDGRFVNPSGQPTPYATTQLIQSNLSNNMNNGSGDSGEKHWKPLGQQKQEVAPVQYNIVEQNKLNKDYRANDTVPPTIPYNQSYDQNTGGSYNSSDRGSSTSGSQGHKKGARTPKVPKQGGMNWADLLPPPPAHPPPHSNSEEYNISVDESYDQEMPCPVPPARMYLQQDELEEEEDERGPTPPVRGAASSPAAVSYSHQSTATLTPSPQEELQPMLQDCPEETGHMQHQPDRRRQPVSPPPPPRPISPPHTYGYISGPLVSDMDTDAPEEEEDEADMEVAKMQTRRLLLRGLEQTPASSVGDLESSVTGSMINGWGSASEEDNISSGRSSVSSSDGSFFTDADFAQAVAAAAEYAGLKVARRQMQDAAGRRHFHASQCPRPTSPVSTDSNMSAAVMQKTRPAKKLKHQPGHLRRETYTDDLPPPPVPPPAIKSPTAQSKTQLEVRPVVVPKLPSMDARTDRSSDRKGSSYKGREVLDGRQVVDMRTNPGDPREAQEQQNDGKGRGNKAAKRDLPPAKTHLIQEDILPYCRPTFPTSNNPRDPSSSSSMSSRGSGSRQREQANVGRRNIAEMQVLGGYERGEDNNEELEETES

## Cc1ccc(=O)n(-c2ccccc2)c1 [PFD, Pirfenidone, reference compound]
[1]; Day 1
  body weight of the animals (Mean ± SEM): 279.4 ± 2.3
[1]; Day 3
  body weight of the animals (Mean ± SEM): 261.8 ± 3.9
[1]; Day 5
  body weight of the animals (Mean ± SEM): 265.0 ± 6.4
[1]; Day 7
  body weight of the animals (Mean ± SEM): 282.9 ± 7.4
[1]; Day 9
  body weight of the animals (Mean ± SEM): 298.4 ± 8.0
[1]; Day 11
  body weight of the animals (Mean ± SEM): 312.6 ± 8.8
[1]; Day 13
  body weight of the animals (Mean ± SEM): 321.7 ± 8.3
[1]; continuous administration for 14 days, 50 mg/kg PO BID
  inhibition on the progression of pulmonary fibrosis: significant inhibition

B1: Slit2N: Protein having a molecular weight of about 120 kDa at the N-terminus of the Slit2 protein (protein)
chain: QCSCSGSTVDCHGLALRSVPRNIPRNTERLDLNGNNITRITKTDFAGLRHLRVLQLMENKISTIERGAFQDLKELERLRLNRNHLQLFPELLFLGTAKLYRLDLSENQIQAIPRKAFRGAVDIKNLQLDYNQISCIEDGAFRALRDLEVLTLNNNNITRLSVASFNHMPKLRTFRLHSNNLYCDCHLAWLSDWLRQRPRVGLYTQCMGPSHLRGHNVAEVQKREFVCSGHQSFMAPSCSVLHCPAACTCSNNIVDCRGKGLTEIPTNLPETITEIRLEQNTIKVIPPGAFSPYKKLRRIDLSNNQISELAPDAFQGLRSLNSLVLYGNKITELPKSLFEGLFSLQLLLLNANKINCLRVDAFQDLHNLNLLSLYDNKLQTIAKGTFSPLRAIQTMHLAQNPFICDCHLKWLADYLHTNPIETSGARCTSPRRLANKRIGQIKSKKFRCSAKEQYFIPGTEDYRSKLSGDCFADLACPEKCRCEGTTVDCSNQKLNKIPEHIPQYTAELRLNNNEFTVLEATGIFKKLPQLRKINFSNNKITDIEEGAFEGASGVNEILLTSNRLENVQHKMFKGLESLKTLMLRSNRITCVGNDSFIGLSSVRLLSLYDNQITTVAPGAFDTLHSLSTLNLLANPFNCNCYLAWLGEWLRKKRIVTGNPRCQKPYFLKEIPIQDVAIQDFTCDDGNDDNSCSPLSRCPTECTCLDTVVRCSNKGLKVLPKGIPRDVTELYLDGNQFTLVPKELSNYKHLTLIDLSNNRISTLSNQSFSNMTQLLTLILSYNRLRCIPPRTFDGLKSLRLLSLHGNDISVVPEGAFNDLSALSHLAIGANPLYCDCNMQWLSDWVKSEYKEPGIARCAGPGEMADKLLLTTPSKKFTCQGPVDVNILAKCNPCLSNPCKNDGTCNSDPVDFYRCTCPYGFKGQDCDVPIHACISNPCKHGGTCHLKEGEEDGFWCICADGFEGENCEVNVDDCEDNDCENNSTCVDGINNYTCLCPPEYTGELCEEKLDFCAQDLNPCQHDSKCILTPKGFKCDCTPGYVGEHCDIDFDDCQDNKCKNGAHCTDAVNGYTCICPEGYSGLFCEFSPPMVLPR
[2]
  Ka: 743600 M⁻¹ s⁻¹
